These results are taken from patent US10577336B2, “Morpholine and 1,4-oxazepane amides as somatostatin receptor subtype 4 (SSTR4) agonists” (Boehringer Ingelheim International GmbH, priority 2014, dated 2020).

pEC50: −log10 of the molar value.

For data set [1], the target named is human Somatostatin 4 receptor (hSSTR4) (Homo sapiens (Human), UniProt P31391). Put plainly: cAMP assay with human somatostatin 4 receptor (inhibition of forskolin-stimulated cAMP, hSSTR4 expressing H4 cells). The class given is cell-based. The settings on record: read-out: SSTR4 agonism EC50. A general note: Changes in cAMP serve as a functional read-out for many G protein-coupled receptors.
Sequence of human Somatostatin 4 receptor (hSSTR4) (P31391 whole entry): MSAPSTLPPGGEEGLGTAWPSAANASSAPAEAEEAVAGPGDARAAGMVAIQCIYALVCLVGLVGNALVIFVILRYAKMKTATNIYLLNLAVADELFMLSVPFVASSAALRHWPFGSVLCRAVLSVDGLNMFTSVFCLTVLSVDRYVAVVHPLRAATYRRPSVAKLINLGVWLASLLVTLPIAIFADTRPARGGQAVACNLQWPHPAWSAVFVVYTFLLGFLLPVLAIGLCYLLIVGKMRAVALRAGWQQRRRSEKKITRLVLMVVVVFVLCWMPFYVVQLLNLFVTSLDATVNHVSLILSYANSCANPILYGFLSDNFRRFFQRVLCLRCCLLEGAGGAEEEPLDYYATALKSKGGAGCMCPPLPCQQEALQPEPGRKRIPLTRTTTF

A short description of a further data set: in vitro. To be noted: human, microsomes, pH 7.6.
Data set [2] in a line: Metabolic stability in pooled human liver microsomes (half-life). To be noted: 37° C., 1 μM test compound. For orientation: Liver microsomes are vesicles of endoplasmic reticulum, rich in cytochrome P450 enzymes.

Take `CC(C)(NC(=O)C1CNCCOC1)c1noc2c(Cl)cccc12` (racemic) [Example 72]: in data set [1], the pEC50 was 7.76. Take `Cn1nc(C(C)(C)NC(=O)C2CNCCOC2)c2cccc(F)c21` (racemic) [Example 76]: the pEC50 in data set [1] is 8.00. Take `CC(C)(NC(=O)C1CNCCOC1)c1noc2c(Cl)cccc12` (single isomer, unassigned) [Example 73]: the pEC50 in data set [1] is 8.08. Moreover, in “in vitro”, the half-life at 1 μM was > 2.17 h. On to `Cc1cccn2c(C3(NC(=O)C4CNCCOC4)CC3)ncc12` (stereo not shown) [Example 5], for which, in data set [1], the negative logarithm of the EC50 (pEC50) was 7.69. In the case of `CC(C)(NC(=O)[C@H]1CNCCO1)c1ccnc2ccccc12` [Example 8], the pEC50 in data set [1] was 6.59. Consider `Cn1nc(C(C)(C)NC(=O)[C@@H]2CNCCO2)c2cccc(Cl)c21` [Example 79], for which, in data set [2], the “Half-life t1/2” value was 1.67 h. Same read-out and setting: as for `Cc1cccc2c(C(C)(C)NC(=O)[C@@H]3CNCCO3)nn(C)c12` [Example 83], the figure is >2.17 h. Regarding `Cc1nc(C(C)(C)NC(=O)[C@@H]2CNCCO2)n2cccc(F)c12` [Example 98], the pEC50 in data set [1] is 7.07. For the compound `COc1cccn2c(C(C)(C)NC(=O)[C@@H]3CNCCO3)ncc12` [Example 99], in data set [1], the pEC50 was 7.36.

The pEC50 is −log10 of the EC50, conventionally taken in molar units. Usually half-life stands for the time in which the quantity being followed falls by half. A higher half-life goes with slow loss.
